Literature values as cited in patent US20240173413A1, “Ultrasound Responsive Nanobubble Compositions and Methods of Production and Use Thereof” (University of Central Florida Research Foundation, lnc., priority 2021, published 2024).
Read-outs that look alike come from different tables or passages of the source.

Tested on: patients with postmenopausal osteoporosis
Details: Phase III, development terminated

## CC(C)(F)C[C@H](N[C@@H](c1ccc(-c2ccc(S(C)(=O)=O)cc2)cc1)C(F)(F)F)C(=O)NC1(C#N)CC1 [Odanacatib]
  adverse effects: increased risk of stroke
Listed as ODN
  adverse effects: cardio-cerebrovascular adverse effects
